Assay results published in patent US8759318B2, “Phosphoramidate derivatives of guanosine nucleoside compounds for treatment of viral infections” (Inhibitex, Inc., priority 2009, dated 2014).
Read-outs that look alike come from different tables or passages of the source.

Experiments:
[1] = Cytotoxicity assay (CellTiter-Glo); conditions: human, Huh7 HCV replicon cells (genotype 1b)
[2] = test system: HCV replicon (Genotype 1b); assay: Luciferase genotype 1b replicon potency assay; conditions: Hepatitis C virus, GETYPE1B, read-out: IC50 μM, HCV genotype 1b luciferase replicon, Renilla luciferase reporter
[3] = Protide stability in normal plasma, rat; assay type: in vitro ADME; conditions: 37° C.
Method: (§1) Selected nucleoside 5′-phosphoramidates were examined for stability in human, cynomolgous monkey, rat and mouse plasma at 37° C. at both 30 min and 90 min time points.
(§2) Protide Stability in Normal Plasma: Plasma samples were prepared for analysis as follows. 50 μl of each test sample were distributed a 96-well V-bottom plate. 200 μl of acetonitrile containing 10 ng/ml of an internal standard was added to each plasma sample. The precipitated samples were centrifuged at 2500 rpm, 4° C. for 20 minutes in a Sorvall RT6000S centrifuge (Thermo Scientific, Waltham Mass.) and 100 μl of supernatant from each sample was transferred into a 96 deep well plate followed by the addition of 100 μl H2O to each sample. Samples were covered, mixed well by vortexing and maintained at 2-8° C. before and during analysis. 15 μl of each test sample was analyzed for protide concentrations by liquid chromatography coupled to tandem mass spectrometry (LC-MS/MS). Liquid chromatography was performed with an Agilent 1100 Series HPLC system equipped with a Synergi 4 μm Polar-RP, 30×2.0 mm column (Phenomenex, Torrance, Calif.). The HPLC system was coupled to an API 4000 triple quadrupole mass spectrometer (Applied Biosystems, Framingham, Mass.). Mass spectrometry was performed in positive ion mode and data was analyzed using Analyst® v1.4.2 software (Applied Biosystems, Framingham, Mass.). Data was presented as the percentage of compound recovered as compared to the 0 time point control.

[4] = Protide stability in normal plasma, cynomolgous monkey; assay type: in vitro ADME; conditions: 37° C.
Method: as §1, §2

[5] = Protide stability in normal plasma, human; assay type: in vitro ADME; conditions: 37° C.
Method: as §1, §2

[6] = Mouse PK: 2'-C-methylguanosine triphosphate levels in liver; conditions: 2'-C-methylguanosine triphosphate in mouse liver, 50 mg/kg PO
[7] = Protide stability in normal plasma, mouse; assay type: in vitro ADME; conditions: 37° C.
Method: as §1, §2

[8] = in vitro; conditions: human
[9] = mouse, in vivo, po, 50 mg/kg; for Cmax / T1/2 / Tmax: female, ICR

Compound | CC50 at 72 h [1] | IC50 [2] | % Compound Remaining Compared to %100 Acetonitrile Control ([3]; 30 min) | % Compound Remaining Compared to %100 Acetonitrile Control ([3]; 1.5 h) | % Compound Remaining Compared to %100 Acetonitrile Control ([4]; 30 min) | % Compound Remaining Compared to %100 Acetonitrile Control ([4]; 1.5 h) | % Compound Remaining Compared to %100 Acetonitrile Control ([5]; 30 min) | % Compound Remaining Compared to %100 Acetonitrile Control ([5]; 1.5 h) | AUC0-6 [6] | % Compound Remaining Compared to %100 Acetonitrile Control ([7]; 30 min) | % Compound Remaining Compared to %100 Acetonitrile Control ([7]; 1.5 h) | CC50 [8] | Cmax [9] | T1/2 [9] | Tmax [9] | AUC0-6 [9] | AUC0-24 [9]
CCOc1nc(N)nc2c1ncn2C1O[C@H](CO)[C@@H](O)[C@@]1(C)O (stereo partly drawn) [Example 72, (3R,4R,5R)-2-(2-amino-6-ethoxy-9H-purin-9-yl)-5-(hydroxymethyl)-3-methyltetrahydrofuran-3,4-diol] | > 100 µM | 11 µM | – | – | – | – | – | – | – | – | – | – | – | – | – | – | –
C[C@@]1(O)[C@H](O)[C@@H](CO)O[C@H]1n1cnc2c(NCc3ccccc3)nc(N)nc21 [Example 84, (3R,4R,5R)-2-(2-amino-6-(benzylamino)-9H-purin-9-yl)-5-(hydroxymethyl)-3-methyltetrahydrofuran-3,4-diol] | > 100 µM | 27 µM | – | – | – | – | – | – | – | – | – | – | – | – | – | – | –
C[C@H](NP(=O)(OC[C@H]1OC(n2cnc3c(=O)[nH]c(N)nc32)[C@](C)(O)[C@@H]1O)Oc1cccc2ccccc12)C(=O)OCC(C)(C)C (stereo partly drawn) [A, reference compound] | – | – | 0% | 0% | 98.5% | 102.4% | 83.2% | 80.8% | 1584 ng·h/g | 0% | 0% | – | – | – | – | – | –
COc1nc(N)nc2c1ncn2C1O[C@H](COP(=O)(N[C@H](C(=O)OC2CCOCC2)C(C)C)Oc2cccc3ccccc23)[C@@H](O)[C@@]1(C)O (stereo partly drawn) [Example 47, (2S)-tetrahydro-2H-pyran-4-yl 2-((((2R,3R,4R)-5-(2-amino-6-methoxy-9H-purin-9-yl)-3,4-dihydroxy-4-methyltetrahydrofuran-2-yl)methoxy)(naphthalen-1-yloxy)phosphorylamino)-3-methylbutanoate] | – | 0.18 µM | 71.3% | 57.3% | 112.5% | 118.5% | 105.1% | 129.5% | – | 74.3% | 67.4% | > 100 µM | – | – | – | – | –
C[C@H](NP(=O)(OC[C@H]1OC(n2cnc3c(=O)[nH]c(N)nc32)[C@](C)(O)[C@@H]1O)Oc1cccc2ccccc12)C(=O)O[C@@H](C)c1ccccc1 (stereo partly drawn) [G, reference compound] | – | – | – | – | – | – | – | – | 6977 ng·h/g | – | – | – | – | – | – | – | –
CC(C)[C@H](NP(=O)(OC[C@H]1OC(n2cnc3c(=O)[nH]c(N)nc32)[C@](C)(O)[C@@H]1O)Oc1cccc2ccccc12)C(=O)OCC(C)(C)C (stereo partly drawn) [B, reference compound] | – | – | 66.7% | 42.0% | 84.5% | 84.9% | 74.7% | 78.1% | – | 68.3% | 32.3% | – | – | – | – | – | –
COc1nc(N)nc2c1ncn2C1O[C@H](COP(=O)(N[C@H](C(=O)OCc2ccccc2)C(C)C)Oc2cccc3ccccc23)[C@@H](O)[C@@]1(C)O (stereo partly drawn) [Example 36] | – | 0.09 µM | 16.9% | 1.4% | 93.7% | 96% | 70.3% | 74.1% | – | 0.4% | 0% | 34 µM | 1209.7 ng/g | 2.0 h | 4.0 h | 5055 ng·h/g | 6356 ng·h/g
COc1nc(N)nc2c1ncn2C1O[C@H](COP(=O)(N[C@H](C(=O)OCC(C)(C)C)C(C)C)Oc2cccc3ccccc23)[C@@H](O)[C@@]1(C)O (stereo partly drawn) [Example 42, (2S)-neopentyl 2-((((2R,3R,4R)-5-(2-amino-6-methoxy-9H-purin-9-yl)-3,4-dihydroxy-4-methyltetrahydrofuran-2-yl)methoxy)(naphthalen-1-yloxy)phosphorylamino)-3-methylbutanoate] | – | 0.21 µM | 50.0% | 37.0% | 87.0% | 82.5% | 88.5% | 82.5% | 1540 ng·h/g | 66.5% | 45.5% | 30 µM | – | – | – | – | –
COc1nc(N)nc2c1ncn2C1O[C@H](COP(=O)(N[C@H](C(=O)O[C@@H](C)c2ccccc2)C(C)C)Oc2cccc3ccccc23)[C@@H](O)[C@@]1(C)O (stereo partly drawn) [Example 38, (2S)-((S)-1-phenylethyl) 2-((((2R,3R,4R)-5-(2-amino-6-methoxy-9H-purin-9-yl)-3,4-dihydroxy-4-methyltetrahydrofuran-2-yl)methoxy) (naphthalen-1-yloxy)phosphorylamino)-3-methylbutanoate] | – | 0.94 µM | – | – | – | – | – | – | – | – | – | 29 µM | 3130.0 ng/g | 4.3 h | 4.0 h | 14380 ng·h/g | 26837 ng·h/g
CC(C)[C@H](NP(=O)(OC[C@H]1OC(n2cnc3c(=O)[nH]c(N)nc32)[C@](C)(O)[C@@H]1O)Oc1cccc2ccccc12)C(=O)OCc1ccccc1 (stereo partly drawn) [M, reference compound] | – | – | – | – | – | – | – | – | 1937 ng·h/g | – | – | – | – | – | – | – | –
COc1nc(N)nc2c1ncn2C1O[C@H](COP(=O)(N[C@@H](C)C(=O)OCc2ccccc2)Oc2cccc3ccccc23)[C@@H](O)[C@@]1(C)O (stereo partly drawn) [Example 13] | – | 0.026 µM | – | – | 89.1% | 77.0% | 97.2% | 85.4% | – | <3.9% | – | 14 µM | – | – | – | – | –
COc1nc(N)nc2c1ncn2C1O[C@H](COP(=O)(N[C@H](C(=O)OCC(C)(C)C)C(C)C)Oc2c(C)ccc3ccccc23)[C@@H](O)[C@@]1(C)O (stereo partly drawn) [Example 54] | – | 1.5 µM | 60.6% | 58.4% | 119.3% | 124.2% | 80.4% | 93.5% | – | 60.7% | 45.7% | 23 µM | – | – | – | – | –
COc1nc(N)nc2c1ncn2C1O[C@H](COP(=O)(N[C@H](C(=O)OC2CCCCC2)c2ccccc2)Oc2cccc3ccccc23)[C@@H](O)[C@@]1(C)O (stereo partly drawn) [Example 67, (2S)-cyclohexyl 2-((((2R,3R,4R)-5-(2-amino-6-methoxy-9H-purin-9-yl)-3,4-dihydroxy-4-methyltetrahydrofuran-2-yl)methoxy)(naphthalen-1-yloxy)phosphorylamino)-2-phenylacetate] | – | 0.054 µM | – | – | – | – | – | – | – | – | – | 22 µM | – | – | – | – | –
COc1nc(N)nc2c1ncn2C1O[C@H](COP(=O)(N[C@H](C)C(=O)OCC(C)(C)C)Oc2cccc3ccccc23)[C@@H](O)[C@@]1(C)O (stereo partly drawn) [Example 57] | – | 0.24 µM | – | – | – | – | – | – | – | – | – | 51 µM | – | – | – | – | –
